From patent US20240285637A1, “PHOSPHODIESTERASE INHIBITORS FOR THE MITIGATION OF FRAGILE X SYNDROME SYMPTOMS” (THE ROYAL INSTITUTION FOR THE ADVANCEMENT OF …, priority 2021, published 2024)
“Also recorded” adds a separate entry of the source.

Tests used:
Type in all cases: cell-based, mouse
[1] = system: blood vessels (capillaries) in the molecular layer of the cerebellum; test: Acute slice vascular reactivity, cerebellar vermis slices (U46619 constriction, NMDA dilation); design: effect on the NMDA response (vasodilation) / vasodilation (direct action on blood vessels): dose or concentration left out as unconfirmed; conditions: for vasodilation of pre-constricted blood vessels: NMDA 50 μM, 5 mins, after U46619
[2] = system: blood vessels in the somatosensory cortex; test: Acute slice vascular reactivity, somatosensory cortex; design: effect on the NMDA response (vasodilation) / vasodilation (direct action on blood vessels): dose or concentration left out as unconfirmed; conditions: for vasodilation of pre-constricted blood vessels: bath application of NMDA
[3] = system: middle or posterior cerebral arteries; test: Vascular reactivity of isolated pressurized cerebral arteries; conditions: various concentrations, extraluminal application
Description: Vascular reactivity: Middle or posterior cerebral arteries were isolated from both WT (n=9) and Fmr1-KO (n=4) mice and vessel diameter was measured using video microscopy (Living Systems Instrumental, Burlington, VT) as previously described. Blood vessels were cannulated in a closed sac preparation in 1×KREBS buffer, and gradually pressurized to 60 mmHg. Vasoconstriction was measured in response to extraluminal application of either thromboxane A2 receptor agonist U46619, NMDA, or acetylcholine (ACh) at increasing concentrations (10-9 to 10-3 mol/L, Tocris Bioscience Ellisville, MO, USA). Data is presented as a percentage change from the basal diameter.

[4] = system: cerebellar stellate cells; test: Minimal stimulation protocol, evoked IPSCs before and after HFS (failure rate of GABAergic transmission)
[5] = system: cerebellar stellate cells; test: Cell-attached recordings of action currents (intrinsic plasticity) after HFS of parallel fibers; conditions: WT stellate cells, 10 μM APV, 25 minutes after HFS
Source text: Cerebellum slice preparation: Mice (P21-35) were anesthetized with isoflurane and immediately decapitated. A block of cerebellar vermis was rapidly dissected from the mouse head and submerged in an ice-cold cutting solution perfused with carbogen gas (95% O2, 5% CO2). Cutting solution contains (in mM): 235 sucrose, 2.5 KCl, 1.25 NaH2PO4, 28 NaHCO3, 0.5 CaCl2, 7 MgCl2, 28 D-glucose, 1 ascorbic acid, and 3 sodium pyruvate (pH 7.4; 305-315 mOsmol/L). The block of vermis was then fastened to a platform, transferred to the slicing chamber and again submerged in ice-cold cutting solution, bubbled with carbogen throughout the remainder of the procedure. Thin slices of cerebellar vermis (300 μm) were obtained with a vibrating tissue sectioner (Leica VT1200; Leica Instruments, Nussloch, Germany). The slices were transferred to oxygenated artificial cerebrospinal fluid (ACSF) and held at room temperature (21° C.-23° C.) for at least 1 h before recordings were performed. […]
For extracellular stimulations, thin walled borosilicate glass electrodes (OD 1.65 mm, ID 1.15 mm; King Precision Glass Inc, Claremont, CA, USA) were used with a tip resistance of <3 MΩ when filled with ACSF. […] To minimize variability between responses, the stimulating electrode was positioned 50-100 μm away from the recorded cell. […]

[6] = Fmr1 KO stellate cells, 10 μM external MPEP, baseline, n=7
[7] = Fmr1 KO stellate cells, 10 μM external MPEP, post-HFS, n=7

## CCCCC[C@H](O)/C=C/[C@@H]1[C@@H](C/C=C\CCCC(=O)O)[C@H]2CO[C@@H]1C2 [U46619]
[1]; 75 nM
  frequency of blood vessel constriction, Fmr1 KO brain slices compared to WT: much less frequently
[1]; 150 nM
  vasoconstriction, Fmr1 KO brain slices compared to WT: reduced vasoconstriction
[1]; Fmr1 KO mice, [U46619] 75 nM
  blood vessels with no response (no constriction), number: 2
  blood vessels with response (constricted), number: 8
  proportion of blood vessels that constricted: 80%
[1]; Fmr1 KO mice, [U46619] 150 nM
  blood vessels with no response (no constriction), number: 11
  blood vessels with response (constricted), number: 25
  proportion of blood vessels that constricted: 69%
[1]; WT mice, [U46619] 75 nM
  blood vessels with no response (no constriction), number: 3
  blood vessels with response (constricted), number: 10
  proportion of blood vessels that constricted: 77%
[1]; WT mice, [U46619] 150 nM
  blood vessels with no response (no constriction), number: 2
  blood vessels with response (constricted), number: 18
  proportion of blood vessels that constricted: 90%
[1]; cerebellum (FIG. 5N)
  ability to vasoconstrict blood vessels, WT vs Fmr1 KO in all the conditions: similar
[2]; cortex (FIG. 5O)
  ability to vasoconstrict blood vessels, WT vs Fmr1 KO in all the conditions: similar
[3]
  vasoconstriction of MCA/PCA, Fmr1 KO compared to WT: reduced

## N[C@H](CCCP(=O)(O)O)C(=O)O [APV, (2R)-amino-5-phosphonovaleric acid]
[4]; WT mice, in the presence of APV, data not shown
  decrease of failure rate post-HFS: ~5%
[5]
  long-term increase in basal firing rates after HFS of PFs: no long-term increase; also recorded: no increase in action potential firing

## O=C(O)CN(CC(=O)O)c1ccccc1OCCOc1ccccc1N(CC(=O)O)CC(=O)O [BAPTA, 1,2-bis(o-aminophenoxy)ethane-N,N,N′,N′-tetraacetic acid)]
[4]; WT mice, high BAPTA internal solution, data not shown
  change of failure rate post-HFS: did not change their failure rate

## CN[C@H](CC(=O)O)C(=O)O [NMDA, N-methyl-D-aspartate]
[1]; Fmr1 KO cerebellar slices
  vasodilation of pre-constricted blood vessels: failed to promote blood vessel dilation; also recorded: failed to induce vasodilation
[1]; WT cerebellar slices
  vasodilation of pre-constricted blood vessels: caused vasodilation; also recorded: robust vasodilation
[2]; Fmr1 KO cortex
  vasodilation of pre-constricted blood vessels: failed to induce vasodilation
[2]; wildtype cortical blood vessels
  vasodilation of pre-constricted blood vessels: robust vasodilation

## Cc1cccc(C#Cc2ccccc2)n1 [MPEP, 2-Methyl-6-(phenylethynyl)-pyridine]
[4]; Fmr1 KO stellate cells, 10 μM MPEP
  onset of iLTD: prevents the onset of iLTD
[4]; [6]
  failure rate of GABAergic transmission (mean): 77.21+/−3.75%
  time latency of synaptic events (mean): 2.78 ± 0.24 ms
[4]; [7]
  failure rate of GABA-evoked events (mean): 79.98+/−4.58%
  time latency of synaptic events (mean): 2.32 ± 0.29 ms
[4]; α3 KO mice, MPEP, data not shown
  change of failure rate after HFS protocol: slightly decreased their failure rate

## COc1ccc(Cc2nccc3cc(OC)c(OC)cc23)cc1OC [papaverine]
[1]; Fmr1 KO cerebellum
  vasodilation (direct action on blood vessels): able to induce vasodilation
[2]; Fmr1 KO cortex
  vasodilation (direct action on blood vessels): able to induce vasodilation

## COc1ccc2c(c1)c(C1=C(c3c[nH]c4ccccc34)C(=O)NC1=O)cn2CCCN(C)C [Gö6983]
[4]; WT mice, kinase (PKC) inhibitor
  change of failure rate from baseline to post-HFS: did not change

## NC1=N[C@H](O)[C@H]2[C@H]3O[C@]4(O)O[C@@H]([C@@H](O)[C@@]2(N1)[C@@H]4O)[C@]3(O)CO [tetrodotoxin]
[1]
  effect on NMDA-induced vasodilation: completely blocked vasodilation
[2]
  effect on NMDA-induced vasodilation: blocked
